Series [1] can be described thus: collision cross section (TIMS, N2 drift gas) of the primary ion; higher = larger gas-phase ion size.
Series [2] can be described thus: reversed-phase LC retention time (C18, 15 min MeOH gradient); higher = more hydrophobic / later elution.
[3] abbreviates: ionization mode: ESI+, ion species: [M+H]+.
Setting [4] is: ionization mode: ESI-, ion species: [M-H]-.
Where [5] appears, read: ionization mode: ESI+, ion species: [M]+.

Each structure is given as a SMILES string.

`CCS(=O)CCSP(=O)(OC)OC` (stereo not given) [Demeton-S-methyl sulfoxide]: the collision cross section in series [1] (setting [3]) is 142.73 Å². For the same compound, the “reversed-phase LC retention time” value in series [2] (setting [3]) came out at 7.58 min.

With `C[C@H](CCC(=O)O)[C@H]1CC[C@H]2[C@@H]3CC[C@@H]4C[C@H](O)CC[C@]4(C)[C@H]3C[C@H](O)[C@]12C` [Deoxycholic acid], the collision cross section in series [1] (setting [4]) is given as 203 Å². For the same compound, the “reversed-phase LC retention time” value in series [2] (setting [4]) was found to be 15.8 min.

Take `CCNC(=O)C(C)Oc1cccc2ccccc12` (stereo not given) [Desethyl-napropamide]: in series [1] (setting [3]), the collision cross section is on record as 159.85 Å². The “reversed-phase LC retention time” value in series [2] (setting [3]) came out at 14 min.

Consider `CC(C)(C)Nc1nc(N)nc(Cl)n1` [Desethylterbutylazine], for which the collision cross section in series [1] (setting [3]) is listed as 144.23 Å². In series [2] (setting [3]), the “reversed-phase LC retention time” value is 12 min.

On to `CNCCCN1c2ccccc2CCc2ccccc21` [Desipramine], for which, in series [1] (setting [3]), the collision cross section is 164.14 Å². The “reversed-phase LC retention time” value in series [2] (setting [3]) was 12.9 min.

In turn, `Clc1ccc2c(c1)CCc1cccnc1C2=C1CCNCC1` [Desloratadine] returned a collision cross section in series [1] (setting [3]) of 176.94 Å². The “reversed-phase LC retention time” value in series [2] (setting [3]) was 11.7 min.

In turn, `CC1(C)O[C@@H]2C[C@H]3[C@@H]4CCC5=CC(=O)C=C[C@]5(C)[C@H]4[C@@H](O)C[C@]3(C)[C@]2(C(=O)CO)O1` [Desonide] displayed a collision cross section in series [1] (setting [3]) of 200.7 Å². In addition, in series [2] (setting [3]), the “reversed-phase LC retention time” value stood at 13.6 min.

`COc1ccc2c(c1)[C@]13CCCC[C@@H]1[C@H](C2)N(C)CC3` [Dextromethorphan] displayed a collision cross section in series [1] (setting [3]) of 166.66 Å². The “reversed-phase LC retention time” value in series [2] (setting [3]) is 11.4 min.

Take `CCCCC(CC)CNCC(CC)CCCC` (stereo not given) [Di(2-ethylhexyl)amine]: the collision cross section in series [1] (setting [3]) amounted to 171.64 Å². Besides, the “reversed-phase LC retention time” value in series [2] (setting [3]) came to 14.8 min.

Take `CC(CCOC(=O)c1ccccc1C(=O)OCCC(C)CC(C)(C)C)CC(C)(C)C` (stereo not given) [Di-isononyl phthalate]: in series [1] (setting [3]), the collision cross section is listed as 224 Å². For the same compound, the “reversed-phase LC retention time” value in series [2] (setting [3]) is 19.6 min.

As to `CCCCOP(=O)(O)OCCCC` [Di-n-butyl phosphate], in series [1] (setting [4]), the collision cross section is 151.01 Å². Also, in series [2] (setting [4]), the “reversed-phase LC retention time” value amounted to 11.6 min.

With `CCCCCCOC(=O)c1ccccc1C(=O)OCCCCCC` [Di-n-hexyl phthalate], the collision cross section in series [1] (setting [3]) turned out to be 195.44 Å². In series [2] (setting [3]), the “reversed-phase LC retention time” value was 18.2 min.

On to `CCCCCOC(=O)c1ccccc1C(=O)OCCCCC` [Di-n-pentylphthalate], for which, in series [1] (setting [3]), the collision cross section is 182.77 Å². In addition, the “reversed-phase LC retention time” value in series [2] (setting [3]) is 17.4 min.

Regarding `CC(=O)Nc1c(I)c(NC(C)=O)c(I)c(C(=O)O)c1I` [Diatrizoate], the collision cross section in series [1] (setting [3]) was 179.28 Å². The “reversed-phase LC retention time” value in series [2] (setting [3]) came to 4.56 min.

Consider `CN1C(=O)CN=C(c2ccccc2)c2cc(Cl)ccc21` [Diazepam], for which the collision cross section in series [1] (setting [3]) was 165.95 Å². Also, the “reversed-phase LC retention time” value in series [2] (setting [3]) came out at 14.2 min.

For the compound `CCOP(=S)(OCC)Oc1cc(C)nc(C(C)C)n1` [Diazinon], in series [1] (setting [3]), the collision cross section was 172.11 Å². Besides, in series [2] (setting [3]), the “reversed-phase LC retention time” value is 15.6 min.

In series [1] (setting [3]), `CCCCOC(=O)CCCCCCCCC(=O)OCCCC` [Dibutyl sebacate] returned a collision cross section of 185.48 Å². Besides, in series [2] (setting [3]), the “reversed-phase LC retention time” value turned out to be 18 min.

Consider `CCCCOC(=O)c1ccccc1C(=O)OCCCC` [Dibutylphthalate], for which, in series [1] (setting [3]), the collision cross section was 169.98 Å². For the same compound, the “reversed-phase LC retention time” value in series [2] (setting [3]) was 16.4 min.

`Oc1ccc(Cl)cc1Cc1cc(Cl)ccc1O` [Dichlorophen]: in series [1] (setting [4]), the collision cross section is given as 155.04 Å². In series [2] (setting [4]), the “reversed-phase LC retention time” value was determined as 15.3 min.

The compound `COP(=O)(OC)OC=C(Cl)Cl` [Dichlorvos] showed a collision cross section in series [1] (setting [3]) of 139.26 Å². Besides, in series [2] (setting [3]), the “reversed-phase LC retention time” value was determined as 9.07 min.

Take `O=C(O)Cc1ccccc1Nc1c(Cl)cccc1Cl` [Diclofenac]: the collision cross section amounted to 159.21 Å² in series [1] (setting [3]) and 161.99 Å² in series [1] (setting [4]). In addition, the “reversed-phase LC retention time” value in series [2] (setting [3]) came to 15.3 min; in series [2] (setting [4]) it was 13.3 min.

With `Oc1cc(Cl)ccc1Oc1ccc(Cl)cc1` [Diclosan], the collision cross section in series [1] (setting [4]) came out at 152.57 Å². Further, the “reversed-phase LC retention time” value in series [2] (setting [4]) came to 16.2 min.

In the case of `O=C(CC(C(=O)OC1CCCCC1)S(=O)(=O)O)OC1CCCCC1` (stereo not given) [Dicyclohexyl sulfosuccinate], the collision cross section stood at 201.58 Å² in series [1] (setting [3]) and 189.02 Å² in series [1] (setting [4]). Besides, the “reversed-phase LC retention time” value in series [2] (setting [3]) and in series [2] (setting [4]) was 14.2 min in each case.

The compound `O=C(OC1CCCCC1)c1ccccc1C(=O)OC1CCCCC1` [Dicyclohexylphthalate] registered a collision cross section in series [1] (setting [3]) of 187.61 Å². The “reversed-phase LC retention time” value in series [2] (setting [3]) turned out to be 17.5 min.

Turning to `O=C(NC1CCCCC1)NC1CCCCC1` [Dicyclohexylurea], the collision cross section in series [1] (setting [3]) amounted to 160.65 Å²; in series [1] (setting [4]), 163.68 Å². The “reversed-phase LC retention time” value was 13.9 min in series [2] (setting [3]) and 14.3 min in series [2] (setting [4]).

As to `CCCCCCCCCC[N+](C)(C)CCCCCCCCCC` [Didecyldimethylammonium], the collision cross section in series [1] (setting [5]) worked out at 211.39 Å². Besides, the “reversed-phase LC retention time” value in series [2] (setting [5]) was 17.3 min.

In turn, `C[C@]12CCC3=C4CCC(=O)C=C4CC[C@H]3[C@@H]1CC[C@@]2(O)CC#N` [Dienogest] came in with a collision cross section in series [1] (setting [3]) of 175.13 Å². Further, the “reversed-phase LC retention time” value in series [2] (setting [3]) was found to be 12.6 min.

`CCN(CC)c1ccccc1` [Diethylphenylamine] returned a collision cross section in series [1] (setting [3]) of 129.02 Å². The “reversed-phase LC retention time” value in series [2] (setting [3]) came to 6.93 min.

With `CC/C(=C(/CC)c1ccc(O)cc1)c1ccc(O)cc1` [Diethylstilbestrol], in series [1] (setting [4]), the collision cross section was determined as 175.03 Å². Besides, the “reversed-phase LC retention time” value in series [2] (setting [4]) stood at 14.5 min.

In the case of `CC1COC(Cn2cncn2)(c2ccc(Oc3ccc(Cl)cc3)cc2Cl)O1` (stereo not given) [Difenoconazole], in series [1] (setting [3]), the collision cross section was 202.11 Å². In series [2] (setting [3]), the “reversed-phase LC retention time” value was found to be 16.1 min.

As for `O=C(NC(=O)c1c(F)cccc1F)Nc1ccc(Cl)cc1` [Diflubenzuron], the collision cross section in series [1] (setting [3]) is given as 163.34 Å²; in series [1] (setting [4]), 167.93 Å². For the same compound, the “reversed-phase LC retention time” value in series [2] (setting [3]) is 15.1 min; in series [2] (setting [4]), 15.5 min.

Source of the values: the supplement of paper PMC12613149.
